Laboratory results taken from article PMC5654414, “In vitro and in vivo comparative and competitive activity-based protein profiling of GH29 α-L-fucosidases” (Chemical Science, 2015).

Key:
[1] = target: T1, FUCA1 (recombinant human GH29 α-L-fucosidase per table title) (Homo sapiens, UniProt P04066); experiment: In situ inhibition of FUCA1 in living fibroblasts; format: cell-based
T1 construct: endogenous in cells; host or cells: fibroblasts
T1 sequence (P04066 32-466): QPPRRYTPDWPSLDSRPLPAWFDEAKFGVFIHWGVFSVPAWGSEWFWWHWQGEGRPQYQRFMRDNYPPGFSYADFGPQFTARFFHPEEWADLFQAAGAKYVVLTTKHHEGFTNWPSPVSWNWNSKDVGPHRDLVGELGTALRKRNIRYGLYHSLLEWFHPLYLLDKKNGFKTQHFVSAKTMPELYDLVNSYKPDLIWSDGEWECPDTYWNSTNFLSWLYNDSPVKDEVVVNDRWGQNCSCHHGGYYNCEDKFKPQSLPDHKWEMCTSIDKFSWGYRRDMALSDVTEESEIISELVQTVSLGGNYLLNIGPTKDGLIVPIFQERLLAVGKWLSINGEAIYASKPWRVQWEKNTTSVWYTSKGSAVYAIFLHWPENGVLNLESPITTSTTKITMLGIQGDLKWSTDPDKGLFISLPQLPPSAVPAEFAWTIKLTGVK

α-L-fucosidase = target: T2, α-L-fucosidase (Homo sapiens, UniProt P04066); experiment: Competitive ABPP in human spleen lysates (healthy and Gaucher), ABP 1 labeling; format: binding
T2 construct: lysates of spleens from a healthy human individual and a patient suffering from Gaucher disease; from tissue; host or cells: human spleen (normal subject and type 1 Gaucher patient)
T2 sequence (P04066 32-466): T1 sequence (P04066 32-466)
Description: Subsequently, we exposed lysates of spleens from a healthy human individual and a patient suffering from Gaucher disease to ABP 1. […] The labeled band from human Gaucher spleen lysate is considerably more intense than the corresponding band in healthy human spleen, reflecting elevated α-L-fucosidase activity in the former. […] As before, labeling with ABP 1 was suppressed after pre-treatment with either N-benzoyl aziridine 4 or L-fuconojirimycin 6. To further ascertain that […] labels mammalian GH29 retaining α-L-fucosidases we performed a number of control experiments (ESI Fig. S2a ^†). Compound 1 labeled both FUCA1 and FUCA2 that were overexpressed in COS cells. Treatment of murine spleen lysates with 1 yielded a result essentially as observed for healthy human tissue (ESI Fig. S2b ^†).
All pre-incubations and ABP labeling-reactions occurred for 30 min at 37 °C. Total lysates (50 μg), medium (500 μg) or purified protein preparations (5 μg) were labeled with 1 μM JJB256 1 or JJB244 2, dissolved in 150 mM McIlvaine buffer, pH 4.5, incubating for 30 min at 37 °C. […] Wet slab-gels were scanned on fluorescence using a Typhoon Variable Mode Imager (Amersham Biosciences) using λEX 488 nm and λEM 520 nm (band pass filter 40 nm) for green fluorescent JJB256 1 and λEX 532 nm and λEM 610 nM (band pass filter 30 nm) for red fluorescent JJB244 2 and JJB75.

[2] = target: T3, recombinant human FUCA1 (human lysosomal α-L-fucosidase) (Homo sapiens, UniProt P04066); experiment: In vitro inhibition of FUCA1 activity, 4-methylumbelliferyl-α-L-fucopyranoside substrate, lysates of COS-7 cells over-expressing enzyme; format: biochemical
T3 construct: expressed in transfected cells; host or cells: COS-7
T3 sequence (P04066 32-466): T1 sequence (P04066 32-466)
Protocol: Having the cyclophellitol aziridine inhibitors and probes in hand, we determined their inhibitory potency towards the human lysosomal α-L-fucosidase, FUCA1.
The enzymatic activity of α-L-fucosidase was assayed at 37 °C by incubating with 1.5 mM 4-methylumbelliferyl-α-L-fucopyranoside as substrate in 150 mM McIlvaine buffer, pH 4.5, supplemented with 0.1% (w/v) BSA. […] The reaction was quenched by adding excess NaOH–glycine (pH 10.6), after which fluorescence was measured with a fluorimeter LS55 (Perkin Elmer) using λEX 366 nm and λEM 445 nm.

[3] = tested on: recombinant α-L-fucosidase from Bacteroides thetaiotaomicron gene 2970; experiment: Competitive ABPP in E. coli lysate overexpressing bacterial α-L-fucosidase, ABP 1 labeling; format: binding
Protocol: (§1) All pre-incubations and ABP labeling-reactions occurred for 30 min at 37 °C. Total lysates (50 μg), medium (500 μg) or purified protein preparations (5 μg) were labeled with 1 μM JJB256 1 or JJB244 2, dissolved in 150 mM McIlvaine buffer, pH 4.5, incubating for 30 min at 37 °C. For ABPP, protein preparations were pre-incubated with compounds 4 (100 μM), 6 (100 μM), 7–13 (1 or 5 mM, specified in the main text) prior to the addition of 100 nM fluorescent ABPs. Influence of pH on ABP labeling involved pre-incubation at pH 3–10 prior to addition of 100 nM ABP 1. Direct labeling of retaining β-glucosidases occurred at pH 5.0 in conjunction with 100 nM ABP JJB75. Samples were then denatured with 5× Laemmli buffer (50% (v/v) 1 M Tris–HCl, pH 6.8, 50% (v/v) 100% glycerol, 10% (w/v) DTT, 10% (w/v) SDS, 0.01% (w/v) bromophenol blue), boiled for 4 min at 100 °C, and separated by gel electrophoresis on 10% (w/v) SDS-PAGE gels running continuously at 90 V.[13],[14] Wet slab-gels were scanned on fluorescence using a Typhoon Variable Mode Imager (Amersham Biosciences) using λEX 488 nm and λEM 520 nm (band pass filter 40 nm) for green fluorescent JJB256 1 and λEX 532 nm and λEM 610 nM (band pass filter 30 nm) for red fluorescent JJB244 2 and JJB75.

FUCA1 [4] = target: T4, FUCA1 (Homo sapiens, UniProt P04066); experiment: ABP pulldown from Gaucher spleen lysate and LC-MS/MS identification; format: binding; design: lysates of spleens from a healthy human individual and a patient suffering from Gaucher disease; from tissue; host or cells: human spleen (normal subject and type 1 Gaucher patient); conditions: 10 μM probe, Gaucher spleen lysate
T4 sequence (P04066 32-466): T1 sequence (P04066 32-466)
Protocol: To further determine the specificity of the developed ABPs, we have analyzed the ABP-labeled proteins in a complex tissue homogenate. For this purpose, we incubated Gaucher spleen lysate with biotinylated ABP 3 or with DMSO only (control) or competitive ABP 3-labeling by first incubating with fluorescent ABP 1. Glycosylated proteins were then enriched via ConA, followed by affinity purification with streptavidin coated paramagnetic beads. The identity of biotinylated and ABP 3-labeled proteins was determined by on-bead digestion with trypsin, peptide analysis by LC-MS/MS and matching against the human UniProt database, using the Mascot search engine as previously reported.[14] […]
Gaucher spleen lysate (1 g) was cut with a sterile scalpel, mixed with 4 mL 25 mM potassium phosphate buffer (pH 6.5, supplemented with 0.1% (v/v) Triton X-100 and protease inhibitor cocktail (Roche)) and sonicated three times for 10 seconds at 100% strength and kept on ice. […] Lysate was then centrifuged for 10 min at 10 000 g, supernatant collected carefully, protein concentration determined and […] total protein was then incubated with either 0.1% (v/v) DMSO, ABP 1 or ABP 3, or firstly with 10 μM ABP 1 followed by 10 μM of ABP 3, each step taking 30 min at 37 °C, in a total volume of 1 mL McIlvaine buffer, pH 4.5. […]

FUCA1 [5] = target: T4, FUCA1; experiment: Competitive ABPP on recombinant FUCA1 with ABP 1 labeling as readout; format: binding; design: expressed in transfected cells; host or cells: COS-7; conditions: competitive ABPP format
Protocol: as §1

| SMILES | IC50 [1] [nM] | suppression of ABP 1 labeling after pre-treatment (α-L-fucosidase) | IC50 [2] [nM] | further results |
| --- | --- | --- | --- | --- |
| C[C@H]1[C@@H](O)[C@@H](O)[C@H](O)[C@H]2[C@@H]1N2C(=O)c1ccccc1 [compound 4] | 515 ± 72.9 | suppressed | 372 ± 21.2 | fold less active ([2]; compared to 5): about eight-fold; blocking of ABP 1 labeling of major 50 kD band ([3]; pre-incubation with 100 μM): blocked |
| COc1ccc(C2=[N+]3C(=C(CCCCc4cn(CCCCCCCC(=O)N5[C@@H]6[C@@H](C)[C@@H](O)[C@@H](O)[C@H](O)[C@@H]65)nn4)c4ccc(-c5ccc(OC)cc5)n4[B-]3(F)F)C=C2)cc1 [compound 2] | 158 ± 22 |  | 8.7 ± 1.2 |  |
| C[C@H]1[C@@H](O)[C@@H](O)[C@H](O)[C@H]2[C@@H]1N2C(=O)CCCCCCCn1cc(CNC(=O)CCCCCNC(=O)CCCC[C@@H]2SC[C@@H]3NC(=O)N[C@@H]32)nn1 [compound 3] |  |  | 7.2 ± 1.1 | identification of FUCA1 after pull-down (FUCA1 [4]): one of the top identified proteins |
| C[C@H]1[C@@H](O)[C@@H](O)[C@H](O)[C@H]2[C@@H]1N2C(=O)CCCCCCCN=[N+]=[N-] [compound 23] | 65.4 ± 7.5 |  | 8.7 ± 1.1 | fold increase in enzyme inhibition ([2]; comparing 5 with 23): 5 fold |
| C[C@@H]1NC[C@@H](O)[C@H](O)[C@@H]1O.Cl [compound 6, 1-deoxy-L-fuconojirimycin, reference compound] |  | suppressed |  | blocking of ABP 1 labeling of α-L-fucosidase (FUCA1 [5]): able to inhibit FUCA1; blocking of ABP 1 labeling of major 50 kD band ([3]; pre-incubation with 5 mM): blocked |
| CC(=O)N1[C@@H]2[C@@H](C)[C@@H](O)[C@@H](O)[C@H](O)[C@@H]21 [compound 5] | 77.9 ± 9.1 |  | 46.8 ± 3.4 |  |
